Data taken from PMC9364316, “Macromolecular and Solution Properties of the Recombinant Fusion Protein HUG” (Biomacromolecules, 2022).

Molecular target: T1, HUG (HELP-UnaG) (Anguilla japonica, UniProt P0DM59)
T1 construct: entire UnaG (139 aa) fused to the C-terminus of the synthetic human elastin-like polypeptide HELP (536 aa, VAPGVG hexapeptide repeats); fusion of 675 aa, 60,406 Da; expressed in E. coli, purified by inverse phase transition
Test: fluorescence titration (ex […] nm, em […] nm), nonlinear fit of […] binding model

T1 sequence (P0DM59 whole entry, the tested form may be a part): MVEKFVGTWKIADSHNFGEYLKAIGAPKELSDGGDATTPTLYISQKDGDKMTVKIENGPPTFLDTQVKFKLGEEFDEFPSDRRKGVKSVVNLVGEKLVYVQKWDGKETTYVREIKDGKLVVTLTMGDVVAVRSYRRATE

Kd: 1.1 nM
Structure (SMILES): C=CC1=C(C)/C(=C/c2[nH]c(Cc3[nH]c(/C=C4\NC(=O)C(C)=C4C=C)c(C)c3CCC(=O)O)c(CCC(=O)O)c2C)NC1=O [bilirubin]
